Data reported in patent publication US8841346B2 (Massachusetts Institute of Technology, priority 2009, dated 2014).
In brackets after ≈: the same amount, converted by molar mass. Entries after “also recorded” stand apart in the source; their conditions may differ. Like-named read-outs stand apart in the source and are kept apart here.

Tests used:
[1] = system: C57/BL6 WT mice; experiment: Contextual fear conditioning paradigm, memory formation in wild type mice; type: in vivo; conditions: for memory formation, tested 24 hours after training: 1 mg/kg for 10 days, WT mice, n=20 (FIG. 45B); for memory as measured by % freezing, contextual fear conditioning: HDAC inhibitor injected for 10 days, WT mice (FIG. 26)
Protocol: C57/BL6 WT mice were injected with vehicle or HDAC inhibitor for 10 days.
The total number of mice in each group is indicated in the bottom of each column of FIG. 45A. Mice were subsequently trained with contextual fear conditioning paradigm and tested 24 hours after training. […] After 10 day's dosing, mice were trained with contextual fear conditioning paradigm and tested 24 hours after training.

[2] = Solubility study of CI-994 HCl salt in saline; type: physicochemical
Protocol: 2. […] Shaken the tube manually. Observation: Solution becomes hazy. 4. Sonicated the above solution of step 3 for 5 minutes. Observation: Solution becomes white colored cloudy solution when 0.9% saline solution was added. […] 5. […] 6. Supernatant clear solution of step 5 was used for analysis.

[3] = system: Wild type C57/BL6 mice; experiment: Fear extinction under normal extinction paradigm; type: in vivo; conditions: DCS 15 mg/kg or CI-994 30 mg/kg, 21 minute extinction trial
Text: Wild type C57/BL6 mice were trained with contextual fear conditioning paradigms.

[4] = Maximal solubility of CI-994 free base in solvents, HPLC; type: physicochemical
[5] = system: mice; experiment: Extinction of fear memory under specific context; type: in vivo; conditions: 30 mg/kg one hour after retrieval, 3 days, n=10
Protocol: Mice were placed in a novel training box for 3 minutes and received tone for 30 seconds, followed by electrical shocks. […] Twenty-four hours after the second fear conditioning training, mice were exposed to the training chamber (context only) to retrieve the context dependant memory. […] One hour after injection, mice were placed back in the chamber for 3 min for the extinction training. The reactivation-extinction trials were performed once in each day for 3 days and freezing level was measured 5 days after the last training. (n=10 for each group).

[6] = system: mice; experiment: Extinction of traumatic long-term memories; type: in vivo
Text: 30 days after training, mice were exposed to two 3-min extinction sessions per day in the same context as they were trained. […] 30 days after fear conditioning to both the context (context A) and the cue (3×0.8 mA shock for 2 sec paired with a tone) mice were first exposed to the cue alone in a different context (context B) than the one in which training occurred (context A), and subsequently to two 3-min extinction sessions per day in the same context as they were trained (context A). After the end of this extinction session, mice were again exposed to context B, and their memory tested.

[7] = system: TCF/LEF luciferase reporter gene; experiment: TCF/LEF luciferase reporter gene in human neural progenitor cells; type: cell-based; conditions: read-out: EC50 of TCF/LEF luciferase reporter activation
[8] = system: HDAC isoforms; experiment: Enzymatic inhibitory activity against known HDAC isoforms; type: biochemical, human; conditions: for time dependent enzymatic inhibitory activity against HDAC isoforms: 1-3 h preincubation
Text: Comparison was also made to other known memory enhancers and their ability to inhibit the same HDAC enzymes.

[9] = system: CK-p25 mice; experiment: Morris watermaze in CK-p25 mice; conditions: 1 mg/kg i.p. for 10 days
Protocol: All 3 groups of mice were trained with the standard Morris watermaze paradigm for 6 days. Mice were placed in the swimming pool for 60 seconds to search for the hidden platform in each trial. A total of 3 trials were performed in each day with 5 min inter-trial-intervals. The average time each group of mice spent to find the platform is plotted (escape latency).
The two groups of mice were trained in the Morris watermaze paradigm for 7 days as described above. On day 8, platform was removed and mice were tested for memory retrieval. The average time each group of mice spent in the target quadrant is plotted.

[10] = system: CK-p25 mice; experiment: Local field potential recording in hippocampus CA1 of CK-p25 mice; type: in vivo; conditions: 1 mg/kg i.p. 10 days, recorded 10 days after treatment
[11] = system: HDAC2 overexpression mice
Protocol: Mice were trained using contextual fear conditioning paradigm on day 0.
For the memory reconsolidation paradigm, after the fear extinction training as described above, mice were housed in the home cage for one month. Mice were subsequently re-exposed to the conditioning box for 3 min, their freezing behavior measured.

[12] = system: mice; experiment: Fear extinction under the reconsolidation paradigm; type: in vivo; conditions: for spontaneous recovery of fear memory, freezing one month after initial training: reconsolidation paradigm; for fear extinction, freezing time of first trial in each day: reconsolidation training 4 days, n=20
Protocol: Mice were trained in contextual fear conditioning paradigm with two shocks. The mice subsequently received the reconsolidation training during the following 4 days. […] One hour after injection, mice were placed back to the same context for 3 minutes. The freezing time of the first trial in each day was measured and plotted.
Spontaneous recovery of the fear memory were tested one month after the initial fear memory training. […] (students t-Test).

[13] = system: WT C57/BL6 mice; experiment: Single dose before one 21 minute fear extinction trial; type: in vivo
Protocol: The mice were exposed to the fear-associated context for 21 minutes without pairing with shock. Freezing behavior was measured in the first 3 minutes and last 3 minutes during the extinction training, 24 hrs after extinction and 30 days after extinction. (n=20 for each group).

[14] = oral dose level of less than 15 mg/m2 once a day, humans; cited from earlier work
[15] = system: HEK293 cells; experiment: Histone acetylation marks in HEK293 cells, Western blot; type: cell-based; conditions: whole HEK293 cells, 10 uM, 6 hour
[16] = system: mice; experiment: Three-day fear memory extinction trials with reminder shock; type: in vivo; conditions: 25 mg/kg
Protocol: Two groups of mice were trained in contextual fear conditioning for two times before a three-day-extinction trials. In each extinction day, mice were exposed to the training box without any shock for 3 minutes and returned back to their home-cage. […] The freezing behavior of each mouse in the training cage were monitored. To test the fear memory recovery, a reminder shock was given one hour after the last extinction trial.

[17] = target concentration 5 mg/ml, 0.9% NaCl

## COc1cc2c(cc1OC)C(=O)C(CC1CCN(Cc3ccccc3)CC1)C2 (stereo not drawn) [Aricept, reference compound]
[1]
  memory formation, tested 24 hours after training: did not show any effects in memory formation

## CC(=O)Nc1ccc(C(=O)Nc2ccccc2N)cc1.Cl [BROAD-SAI-140]
[2]
  improvement in solubility in aqueous solution versus CI-994: 35 ×
[2]; saline solution
  chemical and solution stability, HPLC: ≥ 2 h
[2]; [17]
  Amount of drug dissolved in mg/ml of saline, 2 hours: 2.841 mg/mL
  Amount of drug dissolved in mg/ml of saline, Initial: 2.852 mg/mL

## CC(=O)Nc1ccc(C(=O)Nc2ccccc2N)cc1 [CI-994, 4-(acetylamino)-N-(2-aminophenyl)benzamide]
[3]
  freezing 24 hours after the extinction training: showed significant reduction in freezing
[4]; maximal solubility, free base
  Conc. in Vehicles, DMA: 246040 µg/mL
  Conc. in Vehicles, DMSO: 266150 µg/mL
  Conc. in Vehicles, EtOH: 2120 µg/mL
  Conc. in Vehicles, NMP: 243280 µg/mL
[4]; maximal solubility, free base, 0.9% NaCl, at least 2 h
  Conc. in Vehicles, Saline: 80 µg/mL
[4]; saline (0.9% NaCl), saline or isotonic, read-out: Conc. in Vehicles, Saline
  solubility at 2 h: 80 µg/mL (≈ 297 µM)
[5]
  freezing level 5 days after the last training: enhanced extinction of fear memory under specific context
[6]; 5 mg/kg (FIG. 49E)
  memories formed in a different context (context B): did not affect memories formed in a context different from the extinction context
[6]; 5 mg/kg, p<0.001 (FIG. 49B)
  freezing level during extinction sessions 30 days after training: significantly reduced the animals' freezing level
[6]; 5 mg/kg, p<0.001 (FIG. 49C)
  freezing levels 30 days after the last extinction trial: still show reduced freezing levels compared to vehicle-treated ones
[6]; 5 mg/kg, p<0.05 (FIG. 49F)
  freezing level in the extinction context (context A): exclusively reduced the animals' freezing level in the context in which the extinction had occurred
[6]; 5 mg/kg, p<0.05 (FIG. 49G)
  freezing levels 30 days after last extinction trials, extinguished context: still show reduced freezing levels compared to vehicle-treated ones
[7]
  EC50: ~7 µM
[8]
  enzymatic inhibitory activity against HDAC isoforms (inhibition profile): primarily Class I HDAC inhibitors
  time dependent enzymatic inhibitory activity against HDAC isoforms: primarily Class I HDAC inhibitors
[8]; listed as CI994
  enzymatic inhibitory activity against HDAC isoforms (inhibition profile): inhibits HDAC1, 2 and 3
[1]
  memory formation, tested 24 hours after training: significantly increased memory formation
[1]; 1 mg/kg, every day and alternate day dosing schedule
  memory as measured by % time freezing: equally effective
[1]; 30 mg/kg every day for 10 days
  memory as measured by % time freezing: improves the memory of mice
[1]; 30 mg/kg, alternate day dosing schedule
  memory as measured by % time freezing: equally effective
[1]; 10, 5, and 1 mg/kg every day for 10 days
  memory as measured by % time freezing, dose response: efficacious as a memory enhancer at all doses
[9]
  time spent in the target quadrant, memory retrieval on day 8: rescued the memory retrieval deficits
[9]; 6 days training
  escape latency (time to find hidden platform): showed similar learning curve as control mice
[10]
  LFP oscillation power in area CA1 (theta and gamma band): significantly increased the oscillation power
[11]; HDAC2 overexpressing mice, 30 mg/kg i.p., 2 doses
  freezing level after 5 extinction trials: 30%
[11]; HDAC2 overexpression mice
  freezing levels after one month of spontaneous recovery: significantly reduced the freezing levels
[11]; WT mice, 30 mg/kg i.p.
  fear memory extinction in WT mice: extinct significantly faster than the vehicle treated group
[12]
  spontaneous recovery of fear memory, freezing one month after initial training: significantly lower freezing level than the vehicle group
  fear extinction, freezing time of first trial in each day: significantly facilitated fear extinction
[13]; one dose i.p. 30 mg/kg
  spontaneous recovery of fear memory 30 days after extinction training: not evident
[13]; one dose i.p. 30 mg/kg one hour before 21 minute extinction trial, n=20
  freezing behavior after single extinction exposure: effective reduction in freezing
[14]
  serum AUC, average (variance as percentage of the mean): 9500(62.7%) ng·hr/mL
  serum Cmax, average (variance as percentage of the mean): 570(25.1%) ng/mL
[15]
  acetylation levels over DMSO controls (anti-acetyl H4K12): increased acetylation levels over DMSO controls
[16]
  decay of freezing time before and after injection, extinction day 1: faster decay of freezing time
  decay of freezing time before and after injection, extinction day 2: faster decay of freezing time
[16]; N=8
  extinction of fear memory, freezing during first 3-min-exposure in each day: much faster
[16]; p<0.05
  freezing time on the third day: significantly less freezing time than the control group
[16]; versus control group
  freezing level 24 hours after the reminder shock: No significant difference

## N[C@@H]1CONC1=O [DCS, D-cycloserine, reference compound]
[3]
  freezing 24 hours after the extinction training: showed significant reduction in freezing
[12]
  spontaneous recovery of fear memory, freezing one month after initial training: no significant difference comparing to the vehicle group
  fear extinction, freezing time of first trial in each day: but not DCS, significantly facilitated fear extinction

## Nc1ccccc1NC(=O)c1ccc(CNc2nccc(-c3cccnc3)n2)cc1 [MGCD0103, reference compound]
[1]
  memory as measured by % freezing, contextual fear conditioning: not efficacious
[1]; listed as MGC-D0103
  memory as measured by % freezing, contextual fear conditioning: did not result in improved cognition

## Nc1ccccc1NC(=O)c1ccc(CNC(=O)OCc2cccnc2)cc1 [MS-275, reference compound]
[1]
  memory as measured by % freezing, contextual fear conditioning: not efficacious; also recorded: did not result in improved cognition

## O=C(CCCCCCC(=O)Nc1ccccc1)NO [SAHA, reference compound]
[15]
  acetylation levels over DMSO controls (anti-acetyl H4K12): increased acetylation levels over DMSO controls

## Nc1ccc(C(=O)Nc2ccccc2N)cc1 [dinaline]
[8]
  enzymatic inhibitory activity against HDAC isoforms (inhibition profile): primarily Class I HDAC inhibitors
  time dependent enzymatic inhibitory activity against HDAC isoforms: primarily Class I HDAC inhibitors
